≈ marks a conversion by molar mass, not a printed value.
Columns and labels:
[1] = Solubility in various solvents; assay type: physicochemical
Protocol: Compound 1 is a dark red color solid with solubility in water about 30 μM, much higher than detection concentration (0.3˜5 μM) that is commonly used in fluorometer or portable detector. Various solvents have been tested in the following table. For transferring Compound 1 as aliquots, ethanol-dichloromethane (DCM) (5:1) is a good solvent giving good solubility and easy evaporation of solvent.

[2] = Linear fluorescence detection response and detection limit for Hg^2+; conditions: 0.3 μM of Compound 1; corresponding to a 1% decrease of fluorescence intensity
Protocol: Linear detection response for Hg^2+ was determined/established for several concentrations of Compound 1. A linear detection response of Hg^2+ in the range 0 to 18 ppb for 0.3 μM of Compound 1 and a detection limit of 0.4 ppb for Hg^2+, corresponding to a 1% decrease of fluorescence intensity was determined (FIG. 2A).

[3] = Spectral properties (absorbance, extinction coefficient, emission) in various solvents; assay type: physicochemical
[4] = Temperature effect on fluorescence quenching by Hg^2+; conditions: one point assay, 1.0 μM Compound 1, 2.0 μM Hg^2+, 596 nm, varying temperatures
Excerpt: New sensors could be used to test water sources in quite different locations, at different seasons, and from diverse water sources.

[5] = Storage stability of metal sensor solution in HDPE/LDPE squeeze bottles; assay type: physicochemical; conditions: 7.4 μM in 50% glycerol-water, on shelf in room and outside in shade
Protocol: High density polyethylene (HDPE) and low density polyethylene (LDPE) squeeze bottles were used to store metal sensor solutions (7.4 μM Compound 1). One pair of HDPE and LDPE bottles was stored on shelf in room, and the other pair of bottles was stored outside in shade. Compound 1 is very stable in 50% glycerol-water without obvious change of absorbance and fluorescence spectra at least for 6 weeks.

[6] = pH tuning study, selectivity for Hg^2+ over 11 other metal ions (fluorescence quenching); conditions: 1.0 μM Compound 1, 11 metal ions each 5 μM, 2.0 μM Hg^2+, pH 4, 5, 6, 7
Protocol: The selectivity of the sensor Compound 1 for Hg^2+ over environmentally relevant alkali, alkaline earth and transition metal ions (K^+, […], Mg^2+, Ca^2+, Ba^2+, Zn^2+, Fe^2+, Ni^2+, Cd^2+, Pb^2+, Cu^2+) was investigated in different pH solution pH=4, 5, NaOAc 0.02M buffer, pH=6, PBS 0.02M buffer, pH 7 water (panel A pH 4.0, panel B pH 5.0, panel C pH 6.0, panel D pH 7.0). Fluorescence spectra of a 1.0 μM Compound 1 solution in the absence (A line) and presence (B line) of a mixture of all 11 metal ions (each 5 μM).

**Q.** What does the source list for `Cc1cn([C@@H]2C[C@@H](O)[C@H](CNC(=O)CCN3C(=O)c4cc(Oc5cccnc5)c5c6c(Oc7cccnc7)cc7c8c(cc(Oc9cccnc9)c(c9c(Oc%10cccnc%10)cc(c4c59)C3=O)c86)C(=O)N(CCC(=O)NC[C@H]3O[C@@H](n4cc(C)c(=O)[nH]c4=O)C[C@@H]3O)C7=O)O2)c(=O)[nH]c1=O` [Compound 1, N-(((2R,3S,5R)-3-hydroxy-5-(5-methyl-2,4-dioxo-3,4-dihydropyrimidin-1(2H)-yl)tetrahydrofuran-2-yl)methyl)-3-(9-(3-((((2S,3R,5S)-3-hydroxy-5-(5-methyl-2,4-dioxo-3,4-dihydropyrimidin-1(2H)-yl)tetrahydrofuran-2-yl)methyl)amino)-3-oxopropyl)-1,3,8,10-tetraoxo-5,6,12,13-tetrakis(pyridin-3-yloxy)-9,10-dihydroanthra[2,1,9-def:6,5,10-d′e′f′]diisoquinolin-2(1H,3H,8H)-yl)propanamide]?
**A.** solubility ([1]; 15% glycerol in water, aqueous with cosolvent or surfactant or cyclodextrin, 15% Glycerol-H2O): ~50 µM (≈ 67.7 µg/mL); solubility ([1]; 30% glycerol in water, aqueous with cosolvent or surfactant or cyclodextrin, 30% Glycerol-H2O): > 86 µM; solubility ([1]; 30% propylene glycol in water, aqueous with cosolvent or surfactant or cyclodextrin, 30% Propylene glycol-H2O): > 86 µM; solubility ([1]; 50% glycerol in water, aqueous with cosolvent or surfactant or cyclodextrin, 50% Glycerol-H2O): > 86 µM; solubility ([1]; 50% propylene glycol in water, aqueous with cosolvent or surfactant or cyclodextrin, 50% Propylene glycol-H2O): > 86 µM; solubility ([1]; DMF, organic solvent or mixture): > 200 µM; solubility ([1]; DMF-water (7:3), organic solvent or mixture, DMF-H2O (7:3)): > 200 µM; solubility ([1]; ethanol, organic solvent or mixture): ~100 µM (≈ 135 µg/mL); solubility ([1]; ethanol-dichloromethane (5:1), organic solvent or mixture, Ethanol-DCM (5:1)): > 342 µM; solubility ([1]; isopropanol, organic solvent or mixture): > 86 µM; solubility ([1]; water): ~30 µM (≈ 40.6 µg/mL); detection limit for Hg^2+ [2]: 0.4 ppb; ε (extinction coefficient) ([3]; 15% Glycerol-H2O): 15000 M⁻¹ cm⁻¹; λmax,abs ([3]; 15% Glycerol-H2O): 564 nm; λmax,flu ([3]; 15% Glycerol-H2O): 598 nm; ε (extinction coefficient) ([3]; 30% Glycerol-H2O): 16970 M⁻¹ cm⁻¹; λmax,abs ([3]; 30% Glycerol-H2O): 566 nm; λmax,flu ([3]; 30% Glycerol-H2O): 598 nm; ε (extinction coefficient) ([3]; 50% Glycerol-H2O): 16330 M⁻¹ cm⁻¹; λmax,abs ([3]; 50% Glycerol-H2O): 565 nm; λmax,flu ([3]; 50% Glycerol-H2O): 598 nm; ε (extinction coefficient) ([3]; DMF-H2O (7:3)): 18900 M⁻¹ cm⁻¹; λmax,abs ([3]; DMF-H2O (7:3)): 561 nm; λmax,flu ([3]; DMF-H2O (7:3)): 595 nm; ε (extinction coefficient) ([3]; Ethanol): 12830 M⁻¹ cm⁻¹; λmax,abs ([3]; Ethanol): 557 nm; λmax,flu ([3]; Ethanol): 594 nm; ε (extinction coefficient) ([3]; Ethanol-DCM (5:1)): 16000 M⁻¹ cm⁻¹; λmax,abs ([3]; Ethanol-DCM (5:1)): 558 nm; λmax,flu ([3]; Ethanol-DCM (5:1)): 595 nm; ε (extinction coefficient) ([3]; H2O): 12375 M⁻¹ cm⁻¹; λmax,abs ([3]; H2O): 563 nm; λmax,flu ([3]; H2O): 595 nm; ε (extinction coefficient) ([3]; Isopropanol): 15200 M⁻¹ cm⁻¹; λmax,abs ([3]; Isopropanol): 561 nm; λmax,flu ([3]; Isopropanol): 594 nm; temperature effect on quenching efficiency [4]: small, but potentially significant, effect; stable without obvious change of absorbance and fluorescence spectra [5]: ≥ 6 weeks; fluorescence response on addition of Hg^2+ to mixture of 11 metal ions [6]: fluorescence quenching

Reference: patent US20150204836A1, “SOLUBLE METAL SENSOR COMPOUNDS AND METHODS FOR MAKING AND USING THE SAME” (UNIVERSITY OF UTAH RESEARHC FOUNDATION, priority 2012, published 2015)
